Several values for one entry are separate records, joined by “and”; a condition that tells them apart may be missing. Identical values can stand only once.
System: 885512-296-R-J2-PDC complex spheroid viability
Assay: Anticancer human tumor 885512-296-R-J2-PDC patient-derived breast carcinoma cell line growth inhibition
Conditions: for viability, T/C: stronger effect = lower value
Description: Multicellular complex tumor spheroid response to LSD1 Inhibitor Iadademstat in combination with a variety of drugs and investigational agents in selected tumor cell lines
The current study was undertaken to assess response to LSD1 inhibitors in combination with standard-of-care drugs and investigational agents in solid tumor complex spheroid models as well as in the K-562 leukemia. Complex spheroids include a stromal component modeled by human endothelial cells (HUVEC) and fibroblasts modeled by human mesenchymal stem cells (MSCs). The concentration ranges selected for each drug and investigational agent were based upon clinically achievable concentrations if the clinical Cmax of the agent was known.
Compounds. The drugs and investigational agents used in this study are listed on Table 1. All of the agents used, including staurosporine (NSC755774) and gemcitabine (NSC613327), were obtained from the Developmental Therapeutics Program, NCI. FDA-approved anticancer drugs are available from the NCI at http://dtp.nci.nih.gov/branches/dscb/oncology_drugset_explanation.html. Drugs and investigational agents were >95% pure by proton nuclear magnetic resonance (NMR) and liquid chromatography/mass spectrometry (LC/MS). Stock solutions were prepared at 400x in DMSO, stored at -70 degrees C, and diluted in fresh medium prior to their use. The final concentration of DMSO in cell culture wells never exceeded 0.25% (v/v). The FDA-approved anticancer drug set is available from the Developmental Therapeutics Program at https://dtp.cancer.gov/organization/dscb/obtaining/available_plates.htm. All drugs and investigational agents were tested over a range starting from a high concentration at or near the clinical Cmax and decreasing in half-log increments. If the clinical Cmax for an agent had not been determined, the highest concentration tested was 10 microM.
Cell Lines. The patient-derived cancer cell (PDC) lines: 292921-168-R-J2-PDC, K24384-001-R-PDC, and 521955-158-R2-J5-PDC pancreatic carcinomas, 556581-035-R-J1 ovarian carcinoma, 324938-238-R-J1-PDC, 855422-203-R-J1-PDC and 883617-216-R-J1-PDC urothelial bladder carcinomas, 743489-274-T-PDC renal cell carcinoma, 138582-R-J1 Merkel cell tumor, K60290-347-R-J1 and K57222-313-R-J1-PDC glioblastomas, 653999-131-R-J2-PDC, LG0703-F948-PDC, and 349418-098-R-PDC non-small cell lung carcinomas, 885512-296-R-J2-PDC, 171881-019-R-J1-PDC breast carcinomas and 186277-243-T-J2-PDC and 233499-124-R-J2-PDC colon carcinomas were obtained from the NCI Patient-Derived Models Repository (PDMR, https://pdmr.cancer.gov). The established cell lines NCI/ADR-RES (RRID:CVCL_14520 and OVCAR-5 (RRID:CVCL_1628) ovarian carcinomas, 786-O (RRID:CVCL_1051) and A498 (RRID:CVCL_A498) renal cell carcinoma, NCI-H211 (ATCC, cat. CRL-5824; RRID:CVCL_1529), NCI-H196 (ATCC, cat. CRL-5823, RRID:CVCL_1509), SW 1271 (ATCC, cat. CRL-2177, RRID:CVCL_1716) and NCI-H1876 (ATCC, cat. CRL-5902, RRID:CVCL_1503) small cell lung carcinomas, MDA-MB-231 (RRID:CVCL_0062) and MDA-MB-468 (RRID:CVCL_0419)breast carcinomas (10-12). Pooled donor human umbilical vein endothelial cells (HUVEC, Lonza, cat. CC-2519) and human mesenchymal stem cells (hMSC, Lonza, cat. PT-2501) were purchased from Lonza (Walkersville, MD).
Cell Culture. All cells were maintained in an incubator at 37 degrees C and 5% CO2 with 95% humidity. The PDC lines were cultured according to standard operating procedures established by the NCI PDMR (https://pdmr.cancer.gov). Briefly all PDCs were thawed and cultured in Matrigel-coated flasks prepared with a working solution of 1X Ham's F-12 nutrient mix, without supplementation (Invitrogen, Waltham, MA, cat. 11765054), 100 U/mL penicillin-streptomycin (Invitrogen, cat. 15140122), and 2.5% Matrigel (Corning Inc., Corning, NY, cat. 354248) for the first three passages. […]

[1] = curve of first compound, second compound 0.1 µM
[2] = curve of first compound, second compound 0.316 µM
[3] = curve of first compound, second compound 1 µM
[4] = curve of first compound, second compound 3.16 µM
[5] = curve of first compound, second compound 10 µM
[6] = second compound 0.1 µM, first compound 0.0316 µM
[7] = second compound 0.1 µM, first compound 0.1 µM
[8] = second compound 0.1 µM, first compound 0.316 µM
[9] = second compound 0.1 µM, first compound 1 µM
[10] = second compound 0.1 µM, first compound 3.16 µM
[11] = second compound 0.1 µM, first compound 10 µM
[12] = second compound 0.316 µM, first compound 0.0316 µM
[13] = second compound 0.316 µM, first compound 0.1 µM
[14] = second compound 0.316 µM, first compound 0.316 µM
[15] = second compound 0.316 µM, first compound 1 µM
[16] = second compound 0.316 µM, first compound 3.16 µM
[17] = second compound 0.316 µM, first compound 10 µM
[18] = second compound 1 µM, first compound 0.0316 µM
[19] = second compound 1 µM, first compound 0.1 µM
[20] = second compound 1 µM, first compound 0.316 µM
[21] = second compound 1 µM, first compound 1 µM
[22] = second compound 1 µM, first compound 3.16 µM
[23] = second compound 1 µM, first compound 10 µM
[24] = second compound 3.16 µM, first compound 0.0316 µM
[25] = second compound 3.16 µM, first compound 0.1 µM
[26] = second compound 3.16 µM, first compound 0.316 µM
[27] = second compound 3.16 µM, first compound 1 µM
[28] = second compound 3.16 µM, first compound 3.16 µM
[29] = second compound 3.16 µM, first compound 10 µM
[30] = second compound 10 µM, first compound 0.0316 µM
[31] = second compound 10 µM, first compound 0.1 µM
[32] = second compound 10 µM, first compound 0.316 µM
[33] = second compound 10 µM, first compound 1 µM
[34] = second compound 10 µM, first compound 3.16 µM
[35] = second compound 10 µM, first compound 10 µM
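Further: spheroids exposed to agents for 7 days before viability read.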

Compound `COc1ccc([C@@H](O)c2cc(-c3ncnc4cc(N5CCOCC5)ccc34)c(F)cc2Cl)nn1` + NC1CCC(NC2CC2c2ccccc2)CC1 has an IC50 [1] of 3530 nM, an IC50 [2] of 3000 nM and an IC50 [3] of 2660 nM. For the same compound, the IC50 [4] was 3230 nM, the IC50 [5] was 2190 nM and the viability, T/C [6] was 114%. It also gave a viability, T/C [7] of 104%, a viability, T/C [8] of 90.3% and a viability, T/C [9] of 91.8%. It also gave a viability, T/C [10] of 50.1%, a viability, T/C [11] of 12.1% and a viability, T/C [12] of 128%. The viability, T/C [13] was 119%, the viability, T/C [14] was 101% and the viability, T/C [15] was 85.2%. It also gave a viability, T/C [16] of 46.3%, a viability, T/C [17] of 11.4% and a viability, T/C [18] of 142%. It also gave a viability, T/C [19] of 102%, a viability, T/C [20] of 102% and a viability, T/C [21] of 89.8%. The viability, T/C [22] was 36.6%, the viability, T/C [23] was 9.41% and the viability, T/C [24] was 117%. For the same compound, the viability, T/C [25] was 109%, the viability, T/C [26] was 105% and the viability, T/C [27] was 92.8%. It also gave a viability, T/C [28] of 49.7%, a viability, T/C [29] of 10.4% and a viability, T/C [30] of 130%. The viability, T/C [31] was 94.9%, the viability, T/C [32] was 87.2% and the viability, T/C [33] was 84.3%. It also gave a viability, T/C [34] of 35% and a viability, T/C [35] of 5.65%.
Work on `Nc1ncn(C2CC(O)C(CO)S2)c(=O)n1` (configuration not stated) + NC1CCC(NC2CC2c2ccccc2)CC1 yielded an IC50 [1] of 5.37 nM, an IC50 [2] of 4.73 nM and an IC50 [3] of 4.84 nM. It also gave an IC50 [4] of 4.82 nM, an IC50 [5] of 2.75 nM and a viability, T/C (second compound 0.1 µM, first compound 0.000949 µM) of 81.1%. For the same compound, the viability, T/C (second compound 0.1 µM, first compound 0.003 µM) was 67.9%, the viability, T/C (second compound 0.1 µM, first compound 0.00949 µM) was 32.5% and the viability, T/C (second compound 0.1 µM, first compound 0.03 µM) was 15.5%. It also gave a viability, T/C (second compound 0.1 µM, first compound 0.0949 µM) of 12.6%, a viability, T/C (second compound 0.1 µM, first compound 0.3 µM) of 11.3% and a viability, T/C (second compound 0.316 µM, first compound 0.000949 µM) of 93%. The viability, T/C (second compound 0.316 µM, first compound 0.003 µM) was 59%, the viability, T/C (second compound 0.316 µM, first compound 0.00949 µM) was 36.4% and the viability, T/C (second compound 0.316 µM, first compound 0.03 µM) was 20.6%. The viability, T/C (second compound 0.316 µM, first compound 0.0949 µM) was 12.4%, the viability, T/C (second compound 0.316 µM, first compound 0.3 µM) was 10% and the viability, T/C (second compound 1 µM, first compound 0.000949 µM) was 99.2%. It also gave a viability, T/C (second compound 1 µM, first compound 0.003 µM) of 62.2%, a viability, T/C (second compound 1 µM, first compound 0.00949 µM) of 32.8% and a viability, T/C (second compound 1 µM, first compound 0.03 µM) of 17.3%. For the same compound, the viability, T/C (second compound 1 µM, first compound 0.0949 µM) was 11.5%, the viability, T/C (second compound 1 µM, first compound 0.3 µM) was 6.83% and the viability, T/C (second compound 3.16 µM, first compound 0.000949 µM) was 83%. The viability, T/C (second compound 3.16 µM, first compound 0.003 µM) was 61.6%, the viability, T/C (second compound 3.16 µM, first compound 0.00949 µM) was 33.3% and the viability, T/C (second compound 3.16 µM, first compound 0.03 µM) was 18.8%. For the same compound, the viability, T/C (second compound 3.16 µM, first compound 0.0949 µM) was 12.4%, the viability, T/C (second compound 3.16 µM, first compound 0.3 µM) was 8.51% and the viability, T/C (second compound 10 µM, first compound 0.000949 µM) was 79.8%. It also gave a viability, T/C (second compound 10 µM, first compound 0.003 µM) of 47.5%, a viability, T/C (second compound 10 µM, first compound 0.00949 µM) of 23.8% and a viability, T/C (second compound 10 µM, first compound 0.03 µM) of 11.2%. It also gave a viability, T/C (second compound 10 µM, first compound 0.0949 µM) of 9.62% and a viability, T/C (second compound 10 µM, first compound 0.3 µM) of 6.05%.
In the case of `COc1ccc([C@@H](O)c2cc(-c3ncnc4cc(N5CCOCC5)ccc34)c(F)cc2Cl)nn1` + NC1CC1c1ccc(-c2cccc(O)c2)cc1, the IC50 [1] is reported as 3510 nM, the IC50 [2] is reported as 3860 nM and the IC50 [3] is reported as 3330 nM. The IC50 [4] was 1450 nM, the IC50 [5] was 448 nM and the viability, T/C [6] was 126%. For the same compound, the viability, T/C [7] was 127%, the viability, T/C [8] was 94.4% and the viability, T/C [9] was 86.9%. It also gave a viability, T/C [10] of 54.5%, a viability, T/C [11] of 12.9% and a viability, T/C [12] of 111%. For the same compound, the viability, T/C [13] was 121%, the viability, T/C [14] was 103% and the viability, T/C [15] was 94.7%. For the same compound, the viability, T/C [16] was 57.6%, the viability, T/C [17] was 11.8% and the viability, T/C [18] was 98.3%. The viability, T/C [19] was 109%, the viability, T/C [20] was 87.9% and the viability, T/C [21] was 78.9%. The viability, T/C [22] was 52.2%, the viability, T/C [23] was 11.8% and the viability, T/C [24] was 108%. For the same compound, the viability, T/C [25] was 104%, the viability, T/C [26] was 71.6% and the viability, T/C [27] was 58.8%. The viability, T/C [28] was 35.8%, the viability, T/C [29] was 9.34% and the viability, T/C [30] was 78.4%. The viability, T/C [31] was 72.1%, the viability, T/C [32] was 50.6% and the viability, T/C [33] was 39.7%. For the same compound, the viability, T/C [34] was 25.5% and the viability, T/C [35] was 6.59%.
For `CC(C)CC(NC(=O)CNC(=O)c1cc(Cl)ccc1Cl)B1OC(=O)CC(CC(=O)O)(C(=O)O)O1` (configuration not stated), the viability, T/C (compound 0.000316 µM) was 102% and 89.6%, the viability, T/C (compound 0.001 µM) was 84.1% and 89.2% and the viability, T/C (compound 0.00316 µM) was 96.3% and 68.9%. For the same compound, the viability, T/C (compound 0.01 µM) was 22.7% and 9.34%, the viability, T/C (compound 0.0316 µM) was 8.52% and 2.1% and the viability, T/C (compound 0.1 µM) was 4.36% and 0.41%. For the same compound, the IC50 (curve of compound) was 6.45 nM and 4.56 nM.
